Data: PubChem BioAssay AID1259407 (Chemical Carcinogenesis Research Information System (CCRIS), 2018)
Calls of active or inactive are those of the source. No rule for the calls is given here.

System: CCRIS mutagenicity, Ames/micronucleus/aberration tests
Test: CCRIS mutagenicity studies
[1] = Test System: AMES SALMONELLA TYPHIMURIUM, Strain/Indicator: TA98, Metabolic Activation: NONE, Method: PREINCUBATION
[2] = Test System: AMES SALMONELLA TYPHIMURIUM, Strain/Indicator: TA100, Metabolic Activation: NONE, Method: PREINCUBATION
[3] = Test System: AMES SALMONELLA TYPHIMURIUM, Strain/Indicator: TA1537, Metabolic Activation: NONE, Method: STANDARD PLATE
[4] = Test System: AMES SALMONELLA TYPHIMURIUM, Strain/Indicator: TA98, Metabolic Activation: NONE, Method: STANDARD PLATE
[5] = Test System: AMES SALMONELLA TYPHIMURIUM, Strain/Indicator: TA100, Metabolic Activation: NONE, Method: STANDARD PLATE

SMILES: CCCCCOc1cccc(NC(=O)O[C@@H]2CCCC[C@H]2N2CCCC2)c1
- mutagenic call (Test System: AMES SALMONELLA TYPHIMURIUM, Strain/Indicator: TA98, Metabolic Activation: MOUSE, LIVER, S-9, AROCLOR 1254, Method: PREINCUBATION): inactive; negative
- mutagenic call [1]: inactive; negative
- mutagenic call (Test System: AMES SALMONELLA TYPHIMURIUM, Strain/Indicator: TA100, Metabolic Activation: MOUSE, LIVER, S-9, AROCLOR 1254, Method: PREINCUBATION): inactive; negative
- mutagenic call [2]: inactive; negative
- mutagenic call (Test System: AMES SALMONELLA TYPHIMURIUM, Strain/Indicator: TA1535, Metabolic Activation: MOUSE, LIVER, S-9, AROCLOR 1254, Method: PREINCUBATION): inactive; negative
- mutagenic call (Test System: AMES SALMONELLA TYPHIMURIUM, Strain/Indicator: TA1535, Metabolic Activation: NONE, Method: PREINCUBATION): inactive; negative
- mutagenic call (Test System: AMES SALMONELLA TYPHIMURIUM, Strain/Indicator: TA1538, Metabolic Activation: MOUSE, LIVER, S-9, AROCLOR 1254, Method: PREINCUBATION): inactive; negative
- mutagenic call (Test System: AMES SALMONELLA TYPHIMURIUM, Strain/Indicator: TA1538, Metabolic Activation: NONE, Method: PREINCUBATION): inactive; negative
- mutagenic call (Test System: AMES SALMONELLA TYPHIMURIUM, Strain/Indicator: TA1978, Metabolic Activation: MOUSE, LIVER, S-9, AROCLOR 1254, Method: PREINCUBATION): inactive; negative
- mutagenic call (Test System: AMES SALMONELLA TYPHIMURIUM, Strain/Indicator: TA1978, Metabolic Activation: NONE, Method: PREINCUBATION): inactive; negative
- mutagenic call (Test System: E. COLI, Strain/Indicator: CM611 UVRA/LEXA, Metabolic Activation: MOUSE, LIVER, S-9, AROCLOR 1254, Method: PREINCUBATION): inactive; negative
- mutagenic call (Test System: E. COLI, Strain/Indicator: CM611 UVRA/LEXA, Metabolic Activation: NONE, Method: PREINCUBATION): inactive; negative
- mutagenic call (Test System: E. COLI, Strain/Indicator: WP2, Metabolic Activation: MOUSE, LIVER, S-9, AROCLOR 1254, Method: PREINCUBATION): inactive; negative
- mutagenic call (Test System: E. COLI, Strain/Indicator: WP2, Metabolic Activation: NONE, Method: PREINCUBATION): inactive; negative
- mutagenic call (Test System: E. COLI, Strain/Indicator: WP2 UVRA, Metabolic Activation: MOUSE, LIVER, S-9, AROCLOR 1254, Method: PREINCUBATION): inactive; negative
- mutagenic call (Test System: E. COLI, Strain/Indicator: WP2 UVRA, Metabolic Activation: NONE, Method: PREINCUBATION): inactive; negative
- mutagenic call (Test System: E. COLI, Strain/Indicator: WP67 UVRA/POLA, Metabolic Activation: MOUSE, LIVER, S-9, AROCLOR 1254, Method: PREINCUBATION): inactive; negative
- mutagenic call (Test System: E. COLI, Strain/Indicator: WP67 UVRA/POLA, Metabolic Activation: NONE, Method: PREINCUBATION): inactive; negative

SMILES: CC(=O)Nc1ccc2cccnc2c1
- mutagenic call [1]: inactive; negative
- mutagenic call (Test System: AMES SALMONELLA TYPHIMURIUM, Strain/Indicator: TA98, Metabolic Activation: RAT, LIVER, S-9, KANECHLOR 500, Method: PREINCUBATION): active; positive
- mutagenic call [2]: inactive; negative
- mutagenic call (Test System: AMES SALMONELLA TYPHIMURIUM, Strain/Indicator: TA100, Metabolic Activation: RAT, LIVER, S-9, KANECHLOR 500, Method: PREINCUBATION): active; positive

SMILES: [N-]=[N+]=Nc1ccc2c(Nc3ccc(NS(=O)(=O)CCCN)cc3)c3cc(N=[N+]=[N-])ccc3nc2c1
- mutagenic call [3]: active; positive

SMILES: [O]=[U](=[O])=[O]
- mutagenic call (Test System: Human bronchial epithelial (BEP2D) cells, Metabolic Activation: None, Method: Morphological transformation): active; positive. depleted uranium transformed cell lines exhibited significant chromoso

SMILES: C=C[Si](C)(C)CCl
- mutagenic call (Test System: AMES SALMONELLA TYPHIMURIUM, Strain/Indicator: TA98, Metabolic Activation: HAMSTER, LIVER, S-9, AROCLOR 1254 (10%), Method: STANDARD PLATE): inactive; negative
- mutagenic call [4]: inactive; negative
- mutagenic call (Test System: AMES SALMONELLA TYPHIMURIUM, Strain/Indicator: TA98, Metabolic Activation: RAT, LIVER, S-9, AROCLOR 1254 (10%), Method: STANDARD PLATE): inactive; negative
- mutagenic call (Test System: AMES SALMONELLA TYPHIMURIUM, Strain/Indicator: TA100, Metabolic Activation: HAMSTER, LIVER, S-9, AROCLOR 1254 (10%), Method: STANDARD PLATE): inactive; negative
- mutagenic call [5]: inactive; negative
- mutagenic call (Test System: AMES SALMONELLA TYPHIMURIUM, Strain/Indicator: TA100, Metabolic Activation: RAT, LIVER, S-9, AROCLOR 1254 (10%), Method: STANDARD PLATE): inactive; negative
- mutagenic call (Test System: AMES SALMONELLA TYPHIMURIUM, Strain/Indicator: TA1535, Metabolic Activation: HAMSTER, LIVER, S-9, AROCLOR 1254 (10%), Method: STANDARD PLATE): inactive; negative
- mutagenic call (Test System: AMES SALMONELLA TYPHIMURIUM, Strain/Indicator: TA1535, Metabolic Activation: NONE, Method: STANDARD PLATE): inactive; negative
- mutagenic call (Test System: AMES SALMONELLA TYPHIMURIUM, Strain/Indicator: TA1535, Metabolic Activation: RAT, LIVER, S-9, AROCLOR 1254 (10%), Method: STANDARD PLATE): inactive; negative
- mutagenic call (Test System: AMES SALMONELLA TYPHIMURIUM, Strain/Indicator: TA1537, Metabolic Activation: HAMSTER, LIVER, S-9, AROCLOR 1254 (10%), Method: STANDARD PLATE): inactive; negative
- mutagenic call [3]: inactive; negative
- mutagenic call (Test System: AMES SALMONELLA TYPHIMURIUM, Strain/Indicator: TA1537, Metabolic Activation: RAT, LIVER, S-9, AROCLOR 1254 (10%), Method: STANDARD PLATE): inactive; negative
- mutagenic call (Test System: AMES SALMONELLA TYPHIMURIUM, Strain/Indicator: TA1538, Metabolic Activation: HAMSTER, LIVER, S-9, AROCLOR 1254 (10%), Method: STANDARD PLATE): inactive; negative
- mutagenic call (Test System: AMES SALMONELLA TYPHIMURIUM, Strain/Indicator: TA1538, Metabolic Activation: NONE, Method: STANDARD PLATE): inactive; negative
- mutagenic call (Test System: AMES SALMONELLA TYPHIMURIUM, Strain/Indicator: TA1538, Metabolic Activation: RAT, LIVER, S-9, AROCLOR 1254 (10%), Method: STANDARD PLATE): inactive; negative
- mutagenic call (Test System: MOUSE LYMPHOMA, Strain/Indicator: L5178Y (TK+/TK-), Metabolic Activation: NONE, Method: SUSPENSION/PLATE): inactive; negative. reevaluation of results: inconclusive
- mutagenic call (Test System: MOUSE LYMPHOMA, Strain/Indicator: L5178Y (TK+/TK-), Metabolic Activation: RAT, LIVER, S-9, AROCLOR 1254, Method: SUSPENSION/PLATE): inactive; negative. reevaluation of results: negative

SMILES: O=[N+]([O-])c1cc2[nH]c3ccc4ccc(O)cc4c3c2c2ccccc12
- mutagenic call [4]: active; positive
- mutagenic call (Test System: AMES SALMONELLA TYPHIMURIUM, Strain/Indicator: TA98, Metabolic Activation: RAT, LIVER, S-9, 3-METHYLCHOLANTHRENE, Method: STANDARD PLATE): active; positive
- mutagenic call [5]: active; positive
- mutagenic call (Test System: AMES SALMONELLA TYPHIMURIUM, Strain/Indicator: TA100, Metabolic Activation: RAT, LIVER, S-9, 3-METHYLCHOLANTHRENE, Method: STANDARD PLATE): active; positive
